Assay results: ChEMBL document CHEMBL3870361, “Discovery of Novel Seven-Membered Prostacyclin Analogues as Potent and Selective Prostaglandin FP and EP3 Dual Agonists” (ACS Med Chem Lett, 2017)

Key:
[1] = target: Prostaglandin F2-alpha receptor (Homo sapiens, UniProt P43088); assay: Agonist activity at human prostaglandin FP receptor expressed in CHO cells assessed as increase in intracellular calcium level by Fura 2-AM dye based fluorescence assay; assay type: functional, cell-based
[2] = target: T1, Prostaglandin E2 receptor EP3 subtype (Homo sapiens, UniProt P43115); assay: Agonist activity at human EP3 receptor expressed in CHO cells assessed as increase in intracellular calcium level by Fura 2-AM dye based fluorescence assay; assay type: functional, cell-based
T1 sequence (P43115 whole entry): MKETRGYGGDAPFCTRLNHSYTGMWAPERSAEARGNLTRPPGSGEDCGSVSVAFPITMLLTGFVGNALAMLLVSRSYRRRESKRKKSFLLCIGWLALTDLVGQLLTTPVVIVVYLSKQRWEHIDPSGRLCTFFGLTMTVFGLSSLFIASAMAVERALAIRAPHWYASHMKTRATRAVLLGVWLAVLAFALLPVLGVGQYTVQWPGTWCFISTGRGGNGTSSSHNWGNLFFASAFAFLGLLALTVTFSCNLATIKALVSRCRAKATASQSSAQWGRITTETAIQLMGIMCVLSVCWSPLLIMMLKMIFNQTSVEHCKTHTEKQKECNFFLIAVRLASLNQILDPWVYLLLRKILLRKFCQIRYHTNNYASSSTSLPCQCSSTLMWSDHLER

Prostacyclin receptor = Prostacyclin receptor (Homo sapiens, UniProt P43119); assay: Agonist activity at human IP receptor expressed in CHO cells assessed as increase in intracellular cAMP level by HTRF method; assay type: cell-based
Prostacyclin receptor, sequence (P43119 whole entry): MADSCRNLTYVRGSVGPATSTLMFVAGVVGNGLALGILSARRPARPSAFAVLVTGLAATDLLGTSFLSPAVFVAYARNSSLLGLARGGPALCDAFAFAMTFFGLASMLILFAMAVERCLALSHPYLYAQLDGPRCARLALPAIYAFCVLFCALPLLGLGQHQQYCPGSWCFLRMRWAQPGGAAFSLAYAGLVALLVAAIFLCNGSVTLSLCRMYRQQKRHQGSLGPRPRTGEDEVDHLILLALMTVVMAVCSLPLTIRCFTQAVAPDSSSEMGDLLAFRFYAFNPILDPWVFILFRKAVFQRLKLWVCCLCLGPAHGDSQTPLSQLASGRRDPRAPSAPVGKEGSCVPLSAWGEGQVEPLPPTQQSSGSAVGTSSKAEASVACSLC

[3] = target: Prostaglandin E2 receptor EP2 subtype (Homo sapiens, UniProt P43116); assay: Agonist activity at EP2 receptor (unknown origin)
Prostaglandin E2 receptor EP2 subtype, sequence (P43116 whole entry): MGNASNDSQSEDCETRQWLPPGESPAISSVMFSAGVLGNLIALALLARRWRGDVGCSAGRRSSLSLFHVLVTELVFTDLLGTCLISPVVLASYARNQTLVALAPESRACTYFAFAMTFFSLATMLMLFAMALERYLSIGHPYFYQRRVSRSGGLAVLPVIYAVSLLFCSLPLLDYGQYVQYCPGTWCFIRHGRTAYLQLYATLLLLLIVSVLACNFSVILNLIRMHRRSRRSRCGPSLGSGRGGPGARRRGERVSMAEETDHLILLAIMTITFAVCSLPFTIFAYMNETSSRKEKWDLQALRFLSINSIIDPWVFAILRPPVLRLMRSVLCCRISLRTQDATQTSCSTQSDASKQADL

[4] = target: Prostaglandin E2 receptor EP4 subtype (Homo sapiens, UniProt P35408); assay: Agonist activity at EP4 receptor (unknown origin)
Prostaglandin E2 receptor EP4 subtype, sequence (P35408 whole entry): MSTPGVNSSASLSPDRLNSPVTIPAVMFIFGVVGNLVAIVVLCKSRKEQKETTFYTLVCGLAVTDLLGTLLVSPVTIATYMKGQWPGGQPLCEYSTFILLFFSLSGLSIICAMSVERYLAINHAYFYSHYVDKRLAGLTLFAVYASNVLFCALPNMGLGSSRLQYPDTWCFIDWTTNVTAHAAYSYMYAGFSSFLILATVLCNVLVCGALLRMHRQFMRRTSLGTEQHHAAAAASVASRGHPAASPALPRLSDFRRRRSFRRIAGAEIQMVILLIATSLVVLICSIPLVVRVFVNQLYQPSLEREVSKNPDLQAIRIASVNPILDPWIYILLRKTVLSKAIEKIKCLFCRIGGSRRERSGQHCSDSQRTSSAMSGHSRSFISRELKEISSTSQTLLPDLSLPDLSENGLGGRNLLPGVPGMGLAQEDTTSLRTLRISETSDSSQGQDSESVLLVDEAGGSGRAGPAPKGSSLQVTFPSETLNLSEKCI

Prostaglandin F2-alpha receptor, sequence (P43088 whole entry): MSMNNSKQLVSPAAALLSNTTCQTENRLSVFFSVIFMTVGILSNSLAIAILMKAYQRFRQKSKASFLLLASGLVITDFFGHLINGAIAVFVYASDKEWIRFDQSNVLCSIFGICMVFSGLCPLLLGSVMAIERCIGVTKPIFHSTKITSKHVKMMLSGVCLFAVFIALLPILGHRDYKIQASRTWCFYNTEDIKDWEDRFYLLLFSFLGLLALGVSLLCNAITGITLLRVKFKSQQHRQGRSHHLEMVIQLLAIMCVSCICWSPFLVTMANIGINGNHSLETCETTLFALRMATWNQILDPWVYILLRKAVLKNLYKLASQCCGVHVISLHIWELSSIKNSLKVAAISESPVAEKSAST

Structure (SMILES): O=C(O)CCC[C@H]1CC[C@@H]2[C@@H](/C=C/[C@@H](O)COc3ccccc3)[C@H](O)C[C@@H]2O1
- EC50 [1]: 7.1 nM
- EC50 [2]: 3.6 nM

Structure (SMILES): O=C(O)CCCCC1=CC[C@@H]2[C@@H](/C=C/[C@@H](O)COc3ccccc3)[C@H](O)C[C@@H]2OC1
- EC50 [1]: 73 nM
- EC50 [2]: 13 nM
- EC50 (Prostacyclin receptor): > 10000 nM

Structure (SMILES): O=C(O)CCC1=CC[C@@H]2[C@@H](/C=C/[C@@H](O)COc3ccccc3)[C@H](O)C[C@@H]2OC1
- EC50 [1]: 530 nM
- EC50 [2]: 2700 nM
- EC50 (Prostacyclin receptor): > 10000 nM

Structure (SMILES): O=C(O)CC[C@H]1CCC[C@@H]2[C@@H](/C=C/[C@@H](O)COc3ccccc3)[C@H](O)C[C@@H]2O1
- EC50 [1]: 22 nM
- EC50 [2]: 18 nM
- EC50 (Prostacyclin receptor): > 10000 nM

Structure (SMILES): O=C(O)CCCC1=CC[C@@H]2[C@@H](/C=C/[C@@H](O)COc3ccccc3)[C@H](O)C[C@@H]2OC1
- EC50 [1]: 640 nM
- EC50 [2]: 4700 nM
- EC50 (Prostacyclin receptor): > 10000 nM

Structure (SMILES): O=C(O)CCCC[C@H]1CC[C@@H]2[C@@H](/C=C/[C@@H](O)COc3ccccc3)[C@H](O)C[C@@H]2OC1
- EC50 [1]: 43 nM
- EC50 [2]: 540 nM
- EC50 (Prostacyclin receptor): > 10000 nM

Structure (SMILES): O=C(O)CC[C@H]1CC[C@@H]2[C@@H](/C=C/[C@@H](O)COc3ccccc3)[C@H](O)C[C@@H]2OC1
- EC50 [1]: 110 nM
- EC50 [2]: 4800 nM
- EC50 (Prostacyclin receptor): > 10000 nM

Structure (SMILES): O=C(O)CCC[C@@H]1CC[C@@H]2[C@@H](/C=C/[C@@H](O)COc3ccccc3)[C@H](O)C[C@@H]2OC1
- EC50 [1]: 280 nM
- EC50 [2]: 2.3 nM
- EC50 (Prostacyclin receptor): > 10000 nM

Structure (SMILES): O=C(O)CCCCCC1=CC[C@@H]2[C@@H](/C=C/[C@@H](O)COc3ccccc3)[C@H](O)C[C@@H]2OC1
- EC50 [1]: 880 nM
- EC50 [2]: 6400 nM
- EC50 (Prostacyclin receptor): > 10000 nM

Structure (SMILES): O=C(O)CC[C@@H]1CCC[C@@H]2[C@@H](/C=C/[C@@H](O)COc3ccccc3)[C@H](O)C[C@@H]2O1
- EC50 [1]: 3.8 nM
- EC50 [2]: 27 nM
- EC50 (Prostacyclin receptor): 2000 nM

Structure (SMILES): O=C(O)CCC[C@H]1CC[C@@H]2[C@@H](/C=C/[C@@H](O)COc3ccccc3)[C@H](O)C[C@@H]2OC1
- EC50 [1]: 28 nM
- EC50 [2]: 4 nM
- EC50 (Prostacyclin receptor): > 10000 nM
- EC50 [3]: > 10000 nM
- EC50 [4]: > 10000 nM

Structure (SMILES): O=C(O)CCC/C=C\C[C@H]1C(=O)C[C@@H](O)[C@@H]1/C=C/[C@@H](O)COc1ccccc1
- EC50 [1]: 16 nM
- EC50 [2]: 0.89 nM

Structure (SMILES): O=C(O)CCCC[C@@H]1CC[C@@H]2[C@@H](/C=C/[C@@H](O)COc3ccccc3)[C@H](O)C[C@@H]2OC1
- EC50 [1]: 110 nM
- EC50 [2]: 130 nM
- EC50 (Prostacyclin receptor): > 10000 nM

Structure (SMILES): O=C(O)CCC[C@@H]1CC[C@@H]2[C@@H](/C=C/[C@@H](O)COc3ccccc3)[C@H](O)C[C@@H]2O1
- EC50 [1]: 4.1 nM
- EC50 [2]: 4.1 nM
- EC50 (Prostacyclin receptor): 26 nM

Structure (SMILES): O=C(O)CC[C@@H]1CC[C@@H]2[C@@H](/C=C/[C@@H](O)COc3ccccc3)[C@H](O)C[C@@H]2OC1
- EC50 [1]: 1000 nM
- EC50 [2]: 870 nM
- EC50 (Prostacyclin receptor): > 10000 nM

Structure (SMILES): O=C(O)CCC/C=C\C[C@@H]1[C@@H](/C=C/[C@@H](O)COc2cccc(C(F)(F)F)c2)[C@H](O)C[C@@H]1O [FLUPROSTENOL]
- EC50 [1]: 3.6 nM
- EC50 [2]: 3400 nM
- EC50 (Prostacyclin receptor): > 10000 nM
